# Experimental data: ChEMBL document CHEMBL1201862, “PubChem BioAssay data set” (2004)
# Active and inactive are the calls of the source.
# What was measured:
# Cytochrome P450 2C19 = Cytochrome P450 2C19 (Homo sapiens, UniProt P33261); experiment: Cytochrome panel assay with activity outcomes. Panel member name: p450-cyp2c19 Compounds with AC50 equal or less than 10 uM are considered active; format: functional
# Cytochrome P450 2C9 = Cytochrome P450 2C9 (Homo sapiens, UniProt P11712)
# Cytochrome P450 2D6 = Cytochrome P450 2D6 (Homo sapiens, UniProt P10635);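 also: CYP2D6 member of a cytochrome P450 panel assay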
# Chain of Cytochrome P450 2D6 (P10635 whole entry): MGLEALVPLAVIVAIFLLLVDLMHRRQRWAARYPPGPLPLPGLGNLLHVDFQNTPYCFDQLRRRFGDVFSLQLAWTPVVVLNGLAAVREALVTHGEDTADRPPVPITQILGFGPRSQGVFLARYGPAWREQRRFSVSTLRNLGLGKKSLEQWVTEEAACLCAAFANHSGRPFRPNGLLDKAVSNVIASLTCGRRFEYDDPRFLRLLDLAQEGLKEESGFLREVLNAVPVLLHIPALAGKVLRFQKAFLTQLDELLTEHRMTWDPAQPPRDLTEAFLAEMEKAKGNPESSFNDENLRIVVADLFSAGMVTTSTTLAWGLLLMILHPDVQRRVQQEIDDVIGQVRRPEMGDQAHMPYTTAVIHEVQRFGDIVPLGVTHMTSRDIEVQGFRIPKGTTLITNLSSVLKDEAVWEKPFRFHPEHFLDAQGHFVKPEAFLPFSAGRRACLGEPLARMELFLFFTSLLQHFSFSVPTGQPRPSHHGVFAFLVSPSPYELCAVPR
# Cytochrome P450 1A2 = biological target: T1, Cytochrome P450 1A2 (Homo sapiens, UniProt P05177);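 also: PubChem cytochrome P450 panel assay, CYP1A2 panel member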
# T1 sequence (P05177 whole entry): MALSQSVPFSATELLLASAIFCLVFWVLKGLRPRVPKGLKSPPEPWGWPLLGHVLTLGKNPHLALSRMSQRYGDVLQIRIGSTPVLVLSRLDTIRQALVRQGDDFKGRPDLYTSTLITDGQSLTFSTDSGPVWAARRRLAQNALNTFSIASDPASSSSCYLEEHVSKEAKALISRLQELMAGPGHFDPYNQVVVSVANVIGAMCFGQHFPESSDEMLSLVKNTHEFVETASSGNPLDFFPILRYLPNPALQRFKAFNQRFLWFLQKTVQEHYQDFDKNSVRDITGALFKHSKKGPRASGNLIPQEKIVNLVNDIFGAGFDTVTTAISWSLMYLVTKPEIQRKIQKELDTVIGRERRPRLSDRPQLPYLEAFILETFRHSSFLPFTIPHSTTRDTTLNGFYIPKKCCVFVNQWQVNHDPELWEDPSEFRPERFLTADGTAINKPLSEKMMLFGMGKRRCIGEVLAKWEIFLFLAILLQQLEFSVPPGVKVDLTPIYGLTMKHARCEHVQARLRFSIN
# [1] = biological target: Nucleotide-binding oligomerization domain-containing protein 2 (Homo sapiens, UniProt Q9HC29); experiment: PubChem AID 2334; format: functional
# [2] = biological target: Nucleotide-binding oligomerization domain-containing protein 1 (Homo sapiens, UniProt Q9Y239); experiment: blockers of NOD1 pathway activity – revised, SAR follow-up (AID 2333); format: functional
# Tumor necrosis factor = Tumor necrosis factor (Homo sapiens, UniProt P01375); experiment: analog potency on TNFa NF-kB signaling – cell-based, revised, SAR follow-up (AID 2337); format: functional
# Chain of Tumor necrosis factor (P01375 whole entry): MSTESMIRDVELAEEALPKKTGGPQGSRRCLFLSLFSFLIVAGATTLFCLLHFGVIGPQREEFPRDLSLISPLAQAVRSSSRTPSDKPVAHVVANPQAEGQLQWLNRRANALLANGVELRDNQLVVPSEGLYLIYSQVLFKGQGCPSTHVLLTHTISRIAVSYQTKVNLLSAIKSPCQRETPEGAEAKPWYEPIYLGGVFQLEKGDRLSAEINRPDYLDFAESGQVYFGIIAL
# HEK293 [3] = experiment: cells; conditions: Homo sapiens
# Insulin-degrading enzyme [4] = biological target: T2, Insulin-degrading enzyme (Homo sapiens, UniProt P14735); experiment: cellular IDE activation of Abeta substrate cleavage – fluorescence polarization, HEK cells, dose response (AID 588439); format: functional, cell-based
# T2 sequence (P14735 whole entry): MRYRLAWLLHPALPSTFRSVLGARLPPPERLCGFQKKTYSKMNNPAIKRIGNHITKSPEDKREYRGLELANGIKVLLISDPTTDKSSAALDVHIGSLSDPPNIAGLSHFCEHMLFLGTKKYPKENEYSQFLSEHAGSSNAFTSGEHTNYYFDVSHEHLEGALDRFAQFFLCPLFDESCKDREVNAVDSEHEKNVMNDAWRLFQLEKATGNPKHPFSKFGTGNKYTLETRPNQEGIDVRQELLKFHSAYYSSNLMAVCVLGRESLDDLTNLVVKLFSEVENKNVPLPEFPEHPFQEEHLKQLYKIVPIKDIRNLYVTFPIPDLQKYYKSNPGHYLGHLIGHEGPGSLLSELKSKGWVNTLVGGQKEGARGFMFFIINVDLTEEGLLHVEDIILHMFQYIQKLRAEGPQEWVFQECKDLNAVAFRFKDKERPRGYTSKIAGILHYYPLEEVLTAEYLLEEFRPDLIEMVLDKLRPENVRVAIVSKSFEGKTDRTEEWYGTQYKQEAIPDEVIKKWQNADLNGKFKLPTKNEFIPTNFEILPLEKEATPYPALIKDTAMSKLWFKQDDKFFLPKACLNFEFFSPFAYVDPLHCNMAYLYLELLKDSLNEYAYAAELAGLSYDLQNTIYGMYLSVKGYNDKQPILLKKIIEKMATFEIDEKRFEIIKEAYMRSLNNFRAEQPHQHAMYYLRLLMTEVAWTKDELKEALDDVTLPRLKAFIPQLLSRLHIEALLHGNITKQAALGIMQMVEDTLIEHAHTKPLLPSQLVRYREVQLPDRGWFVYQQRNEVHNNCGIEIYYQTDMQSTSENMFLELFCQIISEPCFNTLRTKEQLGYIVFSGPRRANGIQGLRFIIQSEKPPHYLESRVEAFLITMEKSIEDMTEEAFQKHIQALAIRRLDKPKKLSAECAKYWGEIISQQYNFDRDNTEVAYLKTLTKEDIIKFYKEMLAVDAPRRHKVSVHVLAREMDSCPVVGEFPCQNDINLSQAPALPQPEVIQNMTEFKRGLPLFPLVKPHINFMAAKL
# Insulin-degrading enzyme [5] = biological target: T2, Insulin-degrading enzyme; experiment: recombinant IDE activation, cell-free – biochemical, fluorescence polarization, counter-screen for IDE activator project, dose response (AID 588681)
# HeLa = experiment: viability loss in HeLa cells – cell-based, 24 h, cherry-picked samples, cytotoxicity control, dose response (AID 504726); format: functional; conditions: Homo sapiens;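 also: potency for cytotoxicity as loss of luminescence signal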
# HEK293 [6] = experiment: optical interference in Abeta FP readout, dose response, artefact control for IDE activator project, biochemical, fluorescence polarization (AID 588442); format: functional, cell-based; conditions: Homo sapiens
# [7] = biological target: UDP-galactopyranose mutase (Mycobacterium tuberculosis, UniProt P9WIQ1); experiment: Inhibitors of Mycobacterium tuberculosis UDP-galactopyranose mutase (UGM) enzyme Measured in Biochemical System Using Plate Reader - 2105-02_Inhibitor_Dose_CherryPick_Activity. [Related pubchem assays (depositor defined):AID504439]
# Chain of UDP-galactopyranose mutase (P9WIQ1 whole entry): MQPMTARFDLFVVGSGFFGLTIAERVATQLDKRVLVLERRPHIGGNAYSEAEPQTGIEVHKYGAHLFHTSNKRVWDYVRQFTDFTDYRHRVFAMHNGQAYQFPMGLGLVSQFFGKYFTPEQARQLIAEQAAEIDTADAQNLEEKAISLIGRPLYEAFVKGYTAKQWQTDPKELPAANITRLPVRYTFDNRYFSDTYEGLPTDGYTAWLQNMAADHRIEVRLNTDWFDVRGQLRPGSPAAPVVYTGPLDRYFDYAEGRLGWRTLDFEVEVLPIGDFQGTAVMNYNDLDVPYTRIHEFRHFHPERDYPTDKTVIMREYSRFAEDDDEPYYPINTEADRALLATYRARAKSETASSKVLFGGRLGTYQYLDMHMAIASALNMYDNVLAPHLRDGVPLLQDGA
# HEK293 [8] = experiment: membrane integrity loss in HEK cells – cell-based, fluorescence, cytotoxicity control for IDE activator project, dose response (AID 588440); format: functional; conditions: Homo sapiens;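 also: cytotoxicity by LDH release measuring loss of membrane integrity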
# [9] = biological target: T3, Sphingosine 1-phosphate receptor 4 (Homo sapiens, UniProt O95977); experiment: Fluorescence dose response cell-based high throughput screening assay for agonists of the Sphingosine 1-Phosphate Receptor 4 (S1P4). [Related pubchem assays: 1509 (Primary screen.), 1523 (Confirmation screen in triplicates.)]; format: functional
# T3 sequence (O95977 whole entry): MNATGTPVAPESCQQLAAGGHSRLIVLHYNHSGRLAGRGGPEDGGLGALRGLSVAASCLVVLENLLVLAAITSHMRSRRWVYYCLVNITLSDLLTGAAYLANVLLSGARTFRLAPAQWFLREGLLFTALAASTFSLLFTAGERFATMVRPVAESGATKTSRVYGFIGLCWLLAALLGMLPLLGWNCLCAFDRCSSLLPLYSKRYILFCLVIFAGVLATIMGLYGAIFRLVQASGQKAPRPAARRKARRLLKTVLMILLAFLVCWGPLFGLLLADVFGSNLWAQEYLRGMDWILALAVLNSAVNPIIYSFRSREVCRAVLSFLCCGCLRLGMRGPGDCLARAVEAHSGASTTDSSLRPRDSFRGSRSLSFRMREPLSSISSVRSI
# [10] = biological target: Sphingosine 1-phosphate receptor 1 (Homo sapiens, UniProt P21453); experiment: Fluorescence-based counterscreen assay for S1P4 agonists: Cell-based dose response high throughput screening assay to identify agonists of the Sphingosine 1-Phosphate Receptor 1 (S1P1). [Related pubchem assays (depositor defined):AID1509, AID1523, AID1801, AID463107, AID463118, AID463119, AID463122, AID463123, AID463129, AID463225, AID504400, AID504460]; format: functional
# Chain of Sphingosine 1-phosphate receptor 1 (P21453 whole entry): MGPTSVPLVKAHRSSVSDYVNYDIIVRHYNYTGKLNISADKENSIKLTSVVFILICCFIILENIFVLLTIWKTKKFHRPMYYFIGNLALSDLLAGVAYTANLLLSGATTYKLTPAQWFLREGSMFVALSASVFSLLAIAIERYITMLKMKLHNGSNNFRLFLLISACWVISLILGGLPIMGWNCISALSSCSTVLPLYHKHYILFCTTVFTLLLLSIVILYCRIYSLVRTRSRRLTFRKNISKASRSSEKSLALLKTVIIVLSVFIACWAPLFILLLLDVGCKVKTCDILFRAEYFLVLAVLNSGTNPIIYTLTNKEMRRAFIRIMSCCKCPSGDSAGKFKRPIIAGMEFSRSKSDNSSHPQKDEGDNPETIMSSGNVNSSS
# [11] = biological target: T4, Heat shock factor protein 1 (Mus musculus, UniProt P38532); experiment: decrease of HSF1-responsive luciferase luminescence – cell-based, NIH3T3, dose retest, confirmation (AID 2382); format: functional;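 also: NIH3T3 fibroblasts with HSF1-driven luciferase reporter stressed by proteasome inhibitor MG132; luminescence from HSF1-driven luciferase expression after 8 hours of MG132 stress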
# T4 sequence (P38532 whole entry): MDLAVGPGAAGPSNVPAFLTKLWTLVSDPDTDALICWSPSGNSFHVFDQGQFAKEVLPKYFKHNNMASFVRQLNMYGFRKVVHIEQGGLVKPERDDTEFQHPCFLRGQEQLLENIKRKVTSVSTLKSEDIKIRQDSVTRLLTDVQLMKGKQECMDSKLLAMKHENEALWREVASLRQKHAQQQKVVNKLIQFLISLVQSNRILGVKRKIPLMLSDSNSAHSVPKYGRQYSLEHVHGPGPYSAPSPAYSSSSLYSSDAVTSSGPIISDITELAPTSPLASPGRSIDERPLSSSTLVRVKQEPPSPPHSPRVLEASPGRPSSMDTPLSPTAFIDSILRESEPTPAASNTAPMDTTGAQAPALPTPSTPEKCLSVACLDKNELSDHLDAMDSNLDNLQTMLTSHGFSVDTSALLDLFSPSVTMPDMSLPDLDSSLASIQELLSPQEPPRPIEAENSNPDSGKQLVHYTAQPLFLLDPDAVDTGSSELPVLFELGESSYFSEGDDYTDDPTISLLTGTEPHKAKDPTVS
# A-375 [12] = experiment: MITF: Counter assay: A375 proliferation Measured in Cell-Based System Using Plate Reader - 2084-03_Inhibitor_Dose_DryPowder_Activity. [Related pubchem assays (depositor defined):AID488944]; format: functional; conditions: Homo sapiens
# A-375 [13] = experiment: proliferation inhibition in MITF-low A375 cells – cell-based, cherry-pick samples, set 2, counter-screen for MITF modulator project, dose response (AID 540335); format: functional; conditions: Homo sapiens
# [14] = biological target: T5, Polyadenylate-binding protein 1 (Homo sapiens, UniProt P11940); experiment: MLLE domain peptide-binding blockers, IC50 – biochemical, fluorescence polarization, FITC-PAM2 peptide, dose response (AID 602259); format: functional; conditions: read-out: IC50_Mean
# T5 sequence (P11940 whole entry, the tested form may be a part): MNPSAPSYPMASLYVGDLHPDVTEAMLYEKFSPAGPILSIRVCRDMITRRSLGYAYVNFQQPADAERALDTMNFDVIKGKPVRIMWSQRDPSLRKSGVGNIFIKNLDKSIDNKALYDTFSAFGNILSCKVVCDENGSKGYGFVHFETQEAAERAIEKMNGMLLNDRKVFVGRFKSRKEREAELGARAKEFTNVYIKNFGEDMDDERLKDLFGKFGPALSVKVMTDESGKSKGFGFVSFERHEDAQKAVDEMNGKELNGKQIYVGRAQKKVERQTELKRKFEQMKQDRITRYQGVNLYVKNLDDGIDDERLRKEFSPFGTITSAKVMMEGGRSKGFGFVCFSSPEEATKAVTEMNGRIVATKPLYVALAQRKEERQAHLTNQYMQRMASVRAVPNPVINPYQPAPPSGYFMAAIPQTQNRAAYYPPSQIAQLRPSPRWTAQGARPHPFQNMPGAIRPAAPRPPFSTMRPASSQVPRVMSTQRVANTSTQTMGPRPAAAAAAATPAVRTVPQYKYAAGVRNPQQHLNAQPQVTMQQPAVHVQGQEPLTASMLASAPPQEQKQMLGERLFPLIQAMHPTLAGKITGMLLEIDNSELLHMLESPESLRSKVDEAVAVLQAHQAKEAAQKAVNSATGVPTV
# [15] = biological target: T5, Polyadenylate-binding protein 1; experiment: MLLE binding blockers, Cy5 peptide tracer – biochemical, fluorescence polarization, Cy5-PAM2 peptide, secondary, miRNA deadenylation inhibitor project, dose response (AID 602260); format: functional; conditions: read-out: IC50_Mean
# [16] = biological target: Lysine-specific demethylase 4C (Homo sapiens, UniProt Q9H3R0); experiment: inhibition of JMJD2C H3K9me3 demethylation – biochemical, DELFIA europium, cherry-picked samples, dose response (AID 488835); format: functional
# Chain of Lysine-specific demethylase 4C (Q9H3R0 whole entry): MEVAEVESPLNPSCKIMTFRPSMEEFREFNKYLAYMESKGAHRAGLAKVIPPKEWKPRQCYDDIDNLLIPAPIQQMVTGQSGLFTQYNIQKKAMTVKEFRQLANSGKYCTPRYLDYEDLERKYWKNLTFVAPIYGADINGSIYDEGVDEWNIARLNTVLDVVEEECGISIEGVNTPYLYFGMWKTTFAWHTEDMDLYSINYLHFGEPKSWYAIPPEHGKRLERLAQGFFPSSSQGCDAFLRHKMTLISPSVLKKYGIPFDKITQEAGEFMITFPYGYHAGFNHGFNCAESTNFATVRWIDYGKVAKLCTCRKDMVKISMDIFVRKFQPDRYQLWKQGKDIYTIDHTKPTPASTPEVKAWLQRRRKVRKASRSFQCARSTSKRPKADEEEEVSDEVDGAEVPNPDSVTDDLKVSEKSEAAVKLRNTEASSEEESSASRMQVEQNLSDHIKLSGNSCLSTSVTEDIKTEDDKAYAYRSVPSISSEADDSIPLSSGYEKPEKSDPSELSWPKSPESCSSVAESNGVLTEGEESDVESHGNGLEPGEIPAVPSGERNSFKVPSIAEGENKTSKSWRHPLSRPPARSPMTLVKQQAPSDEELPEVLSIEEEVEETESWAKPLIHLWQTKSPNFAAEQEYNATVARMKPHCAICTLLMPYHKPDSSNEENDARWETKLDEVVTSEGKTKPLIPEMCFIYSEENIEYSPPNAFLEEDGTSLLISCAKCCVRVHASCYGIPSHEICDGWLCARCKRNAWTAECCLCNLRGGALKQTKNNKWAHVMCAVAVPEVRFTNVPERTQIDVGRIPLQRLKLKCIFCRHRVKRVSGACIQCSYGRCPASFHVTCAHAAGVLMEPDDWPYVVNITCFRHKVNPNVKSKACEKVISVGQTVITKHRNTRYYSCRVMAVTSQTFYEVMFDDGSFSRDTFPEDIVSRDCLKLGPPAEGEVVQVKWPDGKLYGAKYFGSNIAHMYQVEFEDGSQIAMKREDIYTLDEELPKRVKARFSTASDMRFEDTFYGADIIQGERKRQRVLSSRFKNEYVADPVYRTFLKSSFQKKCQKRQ
# Chain of Cytochrome P450 2C9 (P11712 whole entry): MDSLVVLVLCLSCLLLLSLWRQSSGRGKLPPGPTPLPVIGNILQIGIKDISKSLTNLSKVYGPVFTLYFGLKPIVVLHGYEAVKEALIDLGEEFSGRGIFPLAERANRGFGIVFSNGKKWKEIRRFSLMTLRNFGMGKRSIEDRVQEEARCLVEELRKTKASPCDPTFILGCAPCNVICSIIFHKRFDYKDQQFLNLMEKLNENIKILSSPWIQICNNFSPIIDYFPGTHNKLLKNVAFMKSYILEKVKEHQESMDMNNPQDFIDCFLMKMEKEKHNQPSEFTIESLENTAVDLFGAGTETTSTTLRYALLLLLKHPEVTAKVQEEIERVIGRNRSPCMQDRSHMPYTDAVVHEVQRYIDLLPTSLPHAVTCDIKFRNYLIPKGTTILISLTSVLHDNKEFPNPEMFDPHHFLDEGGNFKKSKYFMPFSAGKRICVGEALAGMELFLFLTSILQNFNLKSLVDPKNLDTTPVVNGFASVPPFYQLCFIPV
# Chain of Cytochrome P450 2C19 (P33261 whole entry): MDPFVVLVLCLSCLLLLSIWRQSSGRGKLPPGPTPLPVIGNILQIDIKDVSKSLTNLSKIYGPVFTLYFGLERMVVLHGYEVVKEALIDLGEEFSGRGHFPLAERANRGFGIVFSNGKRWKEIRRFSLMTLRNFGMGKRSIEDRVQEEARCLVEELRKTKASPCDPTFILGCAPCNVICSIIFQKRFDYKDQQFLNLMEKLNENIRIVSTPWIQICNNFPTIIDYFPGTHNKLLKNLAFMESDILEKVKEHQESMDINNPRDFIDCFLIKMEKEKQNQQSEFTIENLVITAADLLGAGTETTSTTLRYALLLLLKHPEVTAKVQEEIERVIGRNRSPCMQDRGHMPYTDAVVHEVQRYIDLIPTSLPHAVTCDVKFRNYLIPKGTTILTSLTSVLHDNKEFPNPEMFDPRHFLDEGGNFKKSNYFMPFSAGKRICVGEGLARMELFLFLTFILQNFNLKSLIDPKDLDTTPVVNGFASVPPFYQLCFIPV
compound,measurement,setting,value
CCCSc1ccc2nc(NC(=O)OC)[nH]c2c1 [ALBENDAZOLE],AC50,Cytochrome P450 2C19,inactive
same,AC50,Cytochrome P450 2C9,inactive
same,AC50,Cytochrome P450 2D6,inactive
same,AC50,Cytochrome P450 1A2,0.398 µM (active)
O=C(Nc1ccc(CN2CCc3ccccc3C2)cc1)c1ccc(Cl)cc1,IC50,[1],> 20 µM (inactive)
same,IC50,[2],> 20 µM (inactive)
same,IC50,Tumor necrosis factor,> 20 µM (inactive)
same,IC50,HEK293 [3],> 20 µM (inactive)
COc1ccc(N=Nc2nc3ccc(Br)cc3n2C)cc1,EC50,Insulin-degrading enzyme [4],> 54.7 µM (inactive)
same,EC50,Insulin-degrading enzyme [5],> 54.7 µM (inactive)
same,AC50,HeLa,98.3 µM (active)
same,EC50,HEK293 [6],> 54.7 µM (inactive)
same,AC50,[7],145 µM (active)
same,IC50,HEK293 [8],> 89.2 µM (inactive)
C/N=C1/S/C(=C\c2cc(C)n(-c3ccccc3F)c2C)C(=O)N1C,EC50,[9],0.844 µM (active)
same,EC50,[10],1.18 µM (active)
same,EC50,[11],< 0.16 µM (active)
O=C(Nc1cc2c(cc1Cl)OCCO2)c1ccco1,AC50,A-375 [12],> 11 µM (active)
same,AC50,A-375 [13],> 11 µM (active)
CCS(=O)(=O)N1CCCC(C(=O)NCCCOC(C)C)C1 (stereo not drawn),AC50,Cytochrome P450 2D6,inconclusive
O=C(CSc1nc(O)c(Cc2ccccc2)c(=O)[nH]1)c1ccccc1,IC50,[14],52.5 µM (inactive)
same,IC50,[15],> 66 µM (inactive)
same,AC50,[16],16.9 µM (active)
